In patent US20030229079A1 (published 2003) one finds melting point data, which are given here for 1 compound.

As usually defined, the melting point is the temperature, or range, at which the solid turns liquid. As for `O=C(CC(=O)c1cccn1Cc1ccc(F)cc1)c1ccncn1`, the melting point is 128 to 129 °C.
